# Bridge positions count the residues as written; N and C are the ends. Square brackets hold non-standard residues; d marks the D form. Peptide text beside a SMILES is read from it.
# Test system: S. aureus DPC5246
# Type: cell-based, Staphylococcus aureus
# Details: DPC5246, pH 6.8
# Procedure: Peptides were resuspended at 1000 µM in 50 mM sodium phosphate buffer pH 6.8 and checked for purity by MALDI-TOF-MS. Peptides were serially diluted 1 in 4 to give a dilution series of 250, 62.50, 15.63, 3.91, 0.98 and 0.24 µM and assayed by the agar well diffusion assay described by Ryan et al.[19]. Briefly, 50 µl aliquots of each peptide concentration were plated on a S. aureus DPC5246 indicator plate and the plate incubated at 37 °C. Peptide activity (Minimum Inhibitory Concentration (MIC)) was taken as the lowest concentration of peptide to give a zone of inhibition. All assays were performed in triplicate. The dilution series values were rounded to the nearest whole number to give 1000, 250, 63, 16, 4, 1 and 0.25 µM and data is colour coded for ease of interpretation.
row,Compound,"Activity (Minimum Inhibitory Concentration, MIC) [µM]"
1,CSCC[C@@H]1NC(=O)CNC(=O)[C@H]([C@@H](C)O)NC(=O)[C@@H]2CCCN2C(=O)[C@H](CCSC)NC(=O)CNC(=O)[C@H](CC(N)=O)NC(=O)[C@H](CC(N)=O)NC(=O)[C@H](Cc2ccc(O)cc2)NC(=O)[C@H](C(C)C)NC(=O)[C@H](CCCNC(=N)N)NC(=O)[C@@H](N)CSSC[C@@H](C(=O)O)NC(=O)[C@H](Cc2c[nH]c3ccccc23)NC(=O)[C@H](CCCNC(=N)N)NC(=O)[C@H](Cc2ccc(O)cc2)NC1=O [C7-C22] (H-CRVYNNGMPTGMYRWC-OH; disulfide 1-16; N-terminus assumed),> 1000
2,CSCC[C@@H]1NC(=O)CNC(=O)[C@H]([C@@H](C)O)NC(=O)[C@@H]2CCCN2C(=O)[C@H](CCSC)NC(=O)CNC(=O)[C@H](CC(N)=O)NC(=O)[C@H](CC(N)=O)NC(=O)[C@H](Cc2ccc(O)cc2)NC(=O)[C@H](C(C)C)NC(=O)[C@H](CCCNC(=N)N)NC(=O)[C@H](NC(=O)[C@H](CCCNC(=N)N)NC(=O)[C@H](Cc2c[nH]cn2)NC(=O)[C@H](CCCCN)NC(=O)[C@H](CCCCN)NC(=O)[C@H](CCCNC(=N)N)NC(=O)[C@@H](N)CCCCN)CSSC[C@@H](C(=O)O)NC(=O)[C@H](Cc2c[nH]c3ccccc23)NC(=O)[C@H](CCCNC(=N)N)NC(=O)[C@H](Cc2ccc(O)cc2)NC1=O [C7Cd] (H-KRKKHR[dC]RVYNNGMPTGMYRWC-OH; disulfide 7-22; N-terminus assumed),16
3,CSCC[C@@H]1NC(=O)CNC(=O)[C@H]([C@@H](C)O)NC(=O)[C@@H]2CCCN2C(=O)[C@H](CCSC)NC(=O)CNC(=O)[C@H](CC(N)=O)NC(=O)[C@H](CC(N)=O)NC(=O)[C@H](Cc2ccc(O)cc2)NC(=O)[C@H](C(C)C)NC(=O)[C@H](CCCNC(=N)N)NC(=O)[C@@H](NC(=O)[C@H](CCCNC(=N)N)NC(=O)[C@H](Cc2c[nH]cn2)NC(=O)[C@H](CCCCN)NC(=O)[C@H](CCCCN)NC(=O)[C@H](CCCNC(=N)N)NC(=O)[C@@H](N)CCCCN)CSSC[C@H](C(=O)O)NC(=O)[C@H](Cc2c[nH]c3ccccc23)NC(=O)[C@H](CCCNC(=N)N)NC(=O)[C@H](Cc2ccc(O)cc2)NC1=O [C22Cd] (H-KRKKHRCRVYNNGMPTGMYRW[dC]-OH; disulfide 7-22; N-terminus assumed),4
4,CSCC[C@@H]1NC(=O)CNC(=O)[C@H]([C@@H](C)O)NC(=O)[C@@H]2CCCN2C(=O)[C@H](CCSC)NC(=O)[C@H](C)NC(=O)[C@H](CC(N)=O)NC(=O)[C@H](CC(N)=O)NC(=O)[C@H](Cc2ccc(O)cc2)NC(=O)[C@H](C(C)C)NC(=O)[C@H](CCCNC(=N)N)NC(=O)[C@@H](NC(=O)[C@H](CCCNC(=N)N)NC(=O)[C@H](Cc2c[nH]cn2)NC(=O)[C@H](CCCCN)NC(=O)[C@H](CCCCN)NC(=O)[C@H](CCCNC(=N)N)NC(=O)[C@@H](N)CCCCN)CSSC[C@@H](C(=O)O)NC(=O)[C@H](Cc2c[nH]c3ccccc23)NC(=O)[C@H](CCCNC(=N)N)NC(=O)[C@H](Cc2ccc(O)cc2)NC1=O [G13A] (H-KRKKHRCRVYNNAMPTGMYRWC-OH; disulfide 7-22),16
5,CSCC[C@@H]1NC(=O)[C@H](C)NC(=O)[C@H]([C@@H](C)O)NC(=O)[C@@H]2CCCN2C(=O)[C@H](CCSC)NC(=O)CNC(=O)[C@H](CC(N)=O)NC(=O)[C@H](CC(N)=O)NC(=O)[C@H](Cc2ccc(O)cc2)NC(=O)[C@H](C(C)C)NC(=O)[C@H](CCCNC(=N)N)NC(=O)[C@@H](NC(=O)[C@H](CCCNC(=N)N)NC(=O)[C@H](Cc2c[nH]cn2)NC(=O)[C@H](CCCCN)NC(=O)[C@H](CCCCN)NC(=O)[C@H](CCCNC(=N)N)NC(=O)[C@@H](N)CCCCN)CSSC[C@@H](C(=O)O)NC(=O)[C@H](Cc2c[nH]c3ccccc23)NC(=O)[C@H](CCCNC(=N)N)NC(=O)[C@H](Cc2ccc(O)cc2)NC1=O [G17A] (H-KRKKHRCRVYNNGMPTAMYRWC-OH; disulfide 7-22),4
6,CSCC[C@@H]1NC(=O)CNC(=O)[C@H]([C@@H](C)O)NC(=O)[C@@H]2CCCN2C(=O)[C@H](CCSC)NC(=O)CNC(=O)[C@H](CC(N)=O)NC(=O)[C@H](CC(N)=O)NC(=O)[C@H](Cc2ccc(O)cc2)NC(=O)[C@H](C(C)C)NC(=O)[C@H](CCCNC(=N)N)NC(=O)[C@@H](NC(=O)[C@H](CCCNC(=N)N)NC(=O)[C@@H](N)Cc2c[nH]cn2)CSSC[C@@H](C(=O)O)NC(=O)[C@H](Cc2c[nH]c3ccccc23)NC(=O)[C@H](CCCNC(=N)N)NC(=O)[C@H](Cc2ccc(O)cc2)NC1=O [H5-C22] (H-HRCRVYNNGMPTGMYRWC-OH; disulfide 3-18; N-terminus assumed),16
7,CSCC[C@@H]1NC(=O)CNC(=O)[C@H]([C@@H](C)O)NC(=O)[C@@H]2CCCN2C(=O)[C@H](CCSC)NC(=O)CNC(=O)[C@H](CC(N)=O)NC(=O)[C@H](CC(N)=O)NC(=O)[C@H](Cc2ccc(O)cc2)NC(=O)[C@H](C(C)C)NC(=O)[C@H](CCCNC(=N)N)NC(=O)[C@@H](NC(=O)[C@H](CCCNC(=N)N)NC(=O)[C@H](C)NC(=O)[C@H](CCCCN)NC(=O)[C@H](CCCCN)NC(=O)[C@H](CCCNC(=N)N)NC(=O)[C@@H](N)CCCCN)CSSC[C@@H](C(=O)O)NC(=O)[C@H](Cc2c[nH]c3ccccc23)NC(=O)[C@H](CCCNC(=N)N)NC(=O)[C@H](Cc2ccc(O)cc2)NC1=O [H5A] (H-KRKKARCRVYNNGMPTGMYRWC-OH; disulfide 7-22),1
8,CSCC[C@@H]1NC(=O)CNC(=O)[C@H]([C@@H](C)O)NC(=O)[C@@H]2CCCN2C(=O)[C@H](CCSC)NC(=O)CNC(=O)[C@H](CC(N)=O)NC(=O)[C@H](CC(N)=O)NC(=O)[C@H](Cc2ccc(O)cc2)NC(=O)[C@H](C(C)C)NC(=O)[C@H](CCCNC(=N)N)NC(=O)[C@@H](NC(=O)[C@H](CCCNC(=N)N)NC(=O)[C@H](Cc2c[nH]cn2)NC(=O)[C@H](CCCCN)NC(=O)[C@H](CCCCN)NC(=O)[C@H](CCCNC(=N)N)NC(=O)[C@H](C)N)CSSC[C@@H](C(=O)O)NC(=O)[C@H](Cc2c[nH]c3ccccc23)NC(=O)[C@H](CCCNC(=N)N)NC(=O)[C@H](Cc2ccc(O)cc2)NC1=O [K1A] (H-ARKKHRCRVYNNGMPTGMYRWC-OH; disulfide 7-22),1
9,CSCC[C@@H]1NC(=O)CNC(=O)[C@H]([C@@H](C)O)NC(=O)[C@@H]2CCCN2C(=O)[C@H](CCSC)NC(=O)CNC(=O)[C@H](CC(N)=O)NC(=O)[C@H](CC(N)=O)NC(=O)[C@H](Cc2ccc(O)cc2)NC(=O)[C@H](C(C)C)NC(=O)[C@H](CCCNC(=N)N)NC(=O)[C@@H](NC(=O)[C@H](CCCNC(=N)N)NC(=O)[C@H](Cc2c[nH]cn2)NC(=O)[C@H](CCCCN)NC(=O)[C@H](C)NC(=O)[C@H](CCCNC(=N)N)NC(=O)[C@@H](N)CCCCN)CSSC[C@@H](C(=O)O)NC(=O)[C@H](Cc2c[nH]c3ccccc23)NC(=O)[C@H](CCCNC(=N)N)NC(=O)[C@H](Cc2ccc(O)cc2)NC1=O [K3A] (H-KRAKHRCRVYNNGMPTGMYRWC-OH; disulfide 7-22),1
10,CSCC[C@@H]1NC(=O)CNC(=O)[C@H]([C@@H](C)O)NC(=O)[C@@H]2CCCN2C(=O)[C@H](CCSC)NC(=O)CNC(=O)[C@H](CC(N)=O)NC(=O)[C@H](CC(N)=O)NC(=O)[C@H](Cc2ccc(O)cc2)NC(=O)[C@H](C(C)C)NC(=O)[C@H](CCCNC(=N)N)NC(=O)[C@@H](NC(=O)[C@H](CCCNC(=N)N)NC(=O)[C@H](Cc2c[nH]cn2)NC(=O)[C@@H](N)CCCCN)CSSC[C@@H](C(=O)O)NC(=O)[C@H](Cc2c[nH]c3ccccc23)NC(=O)[C@H](CCCNC(=N)N)NC(=O)[C@H](Cc2ccc(O)cc2)NC1=O [K4-C22] (H-KHRCRVYNNGMPTGMYRWC-OH; disulfide 4-19; N-terminus assumed),4
11,CSCC[C@@H]1NC(=O)CNC(=O)[C@H]([C@@H](C)O)NC(=O)[C@@H]2CCCN2C(=O)[C@H](CCSC)NC(=O)CNC(=O)[C@H](CC(N)=O)NC(=O)[C@H](CC(N)=O)NC(=O)[C@H](Cc2ccc(O)cc2)NC(=O)[C@H](C(C)C)NC(=O)[C@H](CCCNC(=N)N)NC(=O)[C@@H](NC(=O)[C@H](CCCNC(=N)N)NC(=O)[C@H](Cc2c[nH]cn2)NC(=O)[C@H](C)NC(=O)[C@H](CCCCN)NC(=O)[C@H](CCCNC(=N)N)NC(=O)[C@@H](N)CCCCN)CSSC[C@@H](C(=O)O)NC(=O)[C@H](Cc2c[nH]c3ccccc23)NC(=O)[C@H](CCCNC(=N)N)NC(=O)[C@H](Cc2ccc(O)cc2)NC1=O [K4A] (H-KRKAHRCRVYNNGMPTGMYRWC-OH; disulfide 7-22),1
12,CSCC[C@@H]1NC(=O)CNC(=O)[C@H]([C@@H](C)O)NC(=O)[C@@H]2CCCN2C(=O)[C@H](C)NC(=O)CNC(=O)[C@H](CC(N)=O)NC(=O)[C@H](CC(N)=O)NC(=O)[C@H](Cc2ccc(O)cc2)NC(=O)[C@H](C(C)C)NC(=O)[C@H](CCCNC(=N)N)NC(=O)[C@@H](NC(=O)[C@H](CCCNC(=N)N)NC(=O)[C@H](Cc2c[nH]cn2)NC(=O)[C@H](CCCCN)NC(=O)[C@H](CCCCN)NC(=O)[C@H](CCCNC(=N)N)NC(=O)[C@@H](N)CCCCN)CSSC[C@@H](C(=O)O)NC(=O)[C@H](Cc2c[nH]c3ccccc23)NC(=O)[C@H](CCCNC(=N)N)NC(=O)[C@H](Cc2ccc(O)cc2)NC1=O [M14A] (H-KRKKHRCRVYNNGAPTGMYRWC-OH; disulfide 7-22),16
